Assay results published in US9023789B2, “Amylin analogs and pharmaceutical compositions thereof” (Novo Nordisk A/S, priority 2012, dated 2015).
Numbered stars: 1 amine (or outer) side, 2 acyl side, 3 side chain; on linkers, the order of the positions; unused ones are H or OH. Bridge positions count the residues as written; N and C are the ends. Side chains are listed from the residue outwards. Peptide text beside a SMILES is read from it. * marks the point of attachment. C20 diacid = O=C(O)CCCCCCCCCCCCCCCCCCC(=O)*; γGlu = O=C(O)[C@H](CCC(=O)[*:2])N[*:1]

Assays:
[1] = biological target: T1, human amylin 3(a) receptor (human calcitonin receptor + RAMP-3) in BHK570 cells (Homo sapiens, UniProt O60896+P30988); test: ASSAY (II)a functional assay, human amylin receptor (CRE luciferase); type: cell-based; conditions: for EC50: human amylin receptor functional potency, assay (II), read-out: hAmylin-R funct. EC50
T1 construct: expressed in transfected cells
In short: (§1)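 BHK cells stably carrying a CRE-luciferase reporter plus calcitonin receptor, or calcitonin receptor with RAMP-3 for the amylin 3(a) receptor, were seeded and kept overnight at 37° C. Compounds were added in assay medium with 10% FBS and 10 mM Hepes, pH 7.4, for 3 hours at 37° C, then luminescence was counted.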

[2] = biological target: T2, human calcitonin (a) receptor in BHK570 cells (Homo sapiens, UniProt P30988); test: ASSAY (II)a functional assay, human calcitonin receptor (CRE luciferase); type: cell-based; conditions: read-out: hCTR funct. EC50
T2 construct: expressed in transfected cells
T2 sequence (P30988 25-474): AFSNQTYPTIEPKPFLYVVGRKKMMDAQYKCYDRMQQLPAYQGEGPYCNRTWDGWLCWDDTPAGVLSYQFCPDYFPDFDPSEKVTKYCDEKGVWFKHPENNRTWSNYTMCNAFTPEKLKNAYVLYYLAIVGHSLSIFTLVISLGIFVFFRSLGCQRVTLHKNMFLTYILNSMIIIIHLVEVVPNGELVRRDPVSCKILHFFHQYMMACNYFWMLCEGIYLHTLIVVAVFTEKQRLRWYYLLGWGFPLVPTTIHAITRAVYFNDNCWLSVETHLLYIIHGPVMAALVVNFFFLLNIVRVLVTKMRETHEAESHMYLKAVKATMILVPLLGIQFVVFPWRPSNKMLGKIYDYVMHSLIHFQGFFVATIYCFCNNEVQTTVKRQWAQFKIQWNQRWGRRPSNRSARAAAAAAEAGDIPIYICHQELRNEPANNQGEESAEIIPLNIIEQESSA
In short: as §1

[3] = biological target: T3, human amylin receptor (membranes from Amylin 3(a)/CRE-luc cells) (Homo sapiens, UniProt O60896+P30988); test: ASSAY (V) binding to the human amylin receptor (SPA, 125I-rat amylin); conditions: for IC50: Table 4, read-out: hAmylin-R bind IC50;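 as to all read-outs here: competition binding of cell membranes (35 ng/µL) mixed with SPA beads in 384-well plates at 40 µL total volume, read by scintillation counting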
T3 construct: expressed in transfected cells
T3 sequence (P30988 25-474): T2 sequence (P30988 25-474)
T3 sequence (O60896 24-148 partner): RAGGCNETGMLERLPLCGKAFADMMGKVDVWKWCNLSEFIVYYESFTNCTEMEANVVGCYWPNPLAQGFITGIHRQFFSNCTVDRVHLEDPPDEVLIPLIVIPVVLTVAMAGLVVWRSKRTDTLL

[4] = biological target: T4, human calcitonin receptor (Homo sapiens, UniProt P30988); test: ASSAY (VII) binding to the human calcitonin receptor (SPA, 125I-Calcitonin); conditions: read-out: hCTR bind IC50;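 also: cell membranes (35 ng/µL) combined with SPA beads in 40 µL of pH 7.4 Hepes buffer, 384-well format, signal counted on a TopCounter instrument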
T4 construct: expressed in transfected cells
T4 sequence (P30988 25-474): T2 sequence (P30988 25-474)

[5] = hCTR funct. EC50 divided by hAmylin-R funct. EC50
[6] = hCTR funct. EC50 over hAmylin-R funct. EC50
[7] = human functional selectivity: hCTR funct. EC50 / hAmylin-R funct. EC50
[8] = Table 5, selectivity, hCTR bind IC50 / hAmylin-R bind IC50
[9] = Table 5a, selectivity, hCTR bind IC50 / hAmylin-R bind IC50
[10] = Table 5b, selectivity, hCTR bind IC50 / hAmylin-R bind IC50
[11] = Table 5c, selectivity, hCTR bind IC50 / hAmylin-R bind IC50
[12] = Table 7, human binding selectivity, included for comparison
[13] = Table 7a (preferred compounds), human binding selectivity, included for comparison
[14] = ratio of human calcitonin receptor binding IC50 to human amylin receptor binding IC50

SMILES: CC[C@H](C)[C@H](NC(=O)[C@H](C)NC(=O)CNC(=O)[C@H](Cc1ccccc1)NC(=O)[C@H](CC(N)=O)NC(=O)[C@@H]1CCCN1C(=O)[C@H](CO)NC(=O)[C@H](CO)NC(=O)[C@H](Cc1c[nH]cn1)NC(=O)[C@H](CCCNC(=N)N)NC(=O)[C@H](CC(C)C)NC(=O)[C@H](Cc1ccccc1)NC(=O)[C@H](CCC(=O)O)NC(=O)[C@H](C)NC(=O)[C@H](CC(C)C)NC(=O)[C@H](CCCNC(=N)N)NC(=O)[C@H](CCC(N)=O)NC(=O)[C@@H](NC(=O)[C@H](C)NC(=O)[C@@H]1CSSC[C@H](NC(=O)[C@@H](N)CCCCNC(=O)CC[C@H](NC(=O)CCCCCCCCCCCCCCCCCCC(=O)O)C(=O)O)C(=O)N[C@@H](CC(N)=O)C(=O)N[C@@H]([C@@H](C)O)C(=O)N[C@@H](C)C(=O)N[C@@H]([C@@H](C)O)C(=O)N1)[C@@H](C)O)C(=O)N1CCC[C@H]1C(=O)N[C@@H](CO)C(=O)N[C@@H](CO)C(=O)N[C@H](C(=O)N[C@@H](CC(N)=O)C(=O)N[C@H](C(=O)NCC(=O)N[C@@H](CCCNC(=N)N)C(=O)N[C@@H](CCC(=O)O)C(=O)N[C@H](C(=O)N[C@@H](Cc1ccc(O)cc1)C(N)=O)[C@@H](C)O)C(C)C)[C@@H](C)O [Example 108] (H-K([γGlu-C20 diacid])CNTATCATQRLAEFLRHSSPNFGAIPSSTNVGRETY-NH2; disulfide 2-7; N-terminus assumed)
- Ratio hCT/hAmylin funct. [1, 5]: 6.5
- Ratio hCT/hAmylin funct. [1, 6]: 6.5
- EC50 [1]: 0.421 nM
- Ratio hCT/hAmylin funct. [1, 7]: 6.5
- EC50 [2]: 2.75 nM
- IC50 [3]: 0.232 nM
- Ratio hCT/hAmylin binding [3, 8]: 28.5
- Ratio hCT/hAmylin binding [3, 9]: 28.5
- Ratio hCT/hAmylin binding [3, 10]: 28.5
- Ratio hCT/hAmylin binding [3, 11]: 28.5
- Ratio hCT/hAmylin binding [3, 12]: 28.5
- Ratio hCT/hAmylin binding [3, 13]: 28.5
- Ratio hCT/hAmylin binding [3, 14]: 28.5
- IC50 [4]: 6.62 nM

SMILES: CC[C@H](C)[C@H](NC(=O)[C@H](C)NC(=O)CNC(=O)[C@H](Cc1ccccc1)NC(=O)[C@H](CC(N)=O)NC(=O)[C@@H]1CCCN1C(=O)[C@H](CO)NC(=O)[C@H](CO)NC(=O)[C@H](Cc1c[nH]cn1)NC(=O)[C@H](CCCNC(=N)N)NC(=O)[C@H](CC(C)C)NC(=O)[C@H](Cc1ccccc1)NC(=O)[C@H](Cc1c[nH]cn1)NC(=O)[C@H](C)NC(=O)[C@H](CC(C)C)NC(=O)[C@H](CCCNC(=N)N)NC(=O)[C@H](CCC(N)=O)NC(=O)[C@@H](NC(=O)[C@H](C)NC(=O)[C@@H]1CSSC[C@H](NC(=O)[C@@H](N)CCCCNC(=O)CC[C@H](NC(=O)CCCCCCCCCCCCCCCCCCC(=O)O)C(=O)O)C(=O)N[C@@H](CC(N)=O)C(=O)N[C@@H]([C@@H](C)O)C(=O)N[C@@H](C)C(=O)N[C@@H]([C@@H](C)O)C(=O)N1)[C@@H](C)O)C(=O)N1CCC[C@H]1C(=O)N[C@@H](CO)C(=O)N[C@@H](CO)C(=O)N[C@H](C(=O)N[C@@H](CC(N)=O)C(=O)N[C@H](C(=O)NCC(=O)N1CCC[C@H]1C(=O)N[C@@H](CC(N)=O)C(=O)N[C@H](C(=O)N1CCC[C@H]1C(N)=O)[C@@H](C)O)C(C)C)[C@@H](C)O [Example 115] (H-K([γGlu-C20 diacid])CNTATCATQRLAHFLRHSSPNFGAIPSSTNVGPNTP-NH2; disulfide 2-7 (inferred); N-terminus assumed)
- Ratio hCT/hAmylin funct. ([1]; hCTR funct. EC50 / hAmylin-R funct. EC50): 0.8
- Ratio hCT/hAmylin funct. [1, 5]: 0.8
- Ratio hCT/hAmylin funct. [1, 6]: 0.8
- EC50 [1]: 0.052 nM
- Ratio hCT/hAmylin funct. [1, 7]: 0.8
- EC50 [2]: 0.04 nM
- IC50 [3]: 0.131 nM
- Ratio hCT/hAmylin binding [3, 8]: 1.2
- Ratio hCT/hAmylin binding [3, 12]: 1.2
- IC50 [4]: 0.157 nM

SMILES: CC[C@H](C)[C@H](NC(=O)[C@H](C)NC(=O)CNC(=O)[C@H](Cc1ccccc1)NC(=O)[C@H](CC(N)=O)NC(=O)[C@@H]1CCCN1C(=O)[C@H](CO)NC(=O)[C@H](CO)NC(=O)[C@H](Cc1c[nH]cn1)NC(=O)[C@H](CCCNC(=N)N)NC(=O)[C@H](CC(C)C)NC(=O)[C@H](Cc1ccccc1)NC(=O)[C@H](CC(N)=O)NC(=O)[C@H](C)NC(=O)[C@H](CC(C)C)NC(=O)[C@H](CCCNC(=N)N)NC(=O)[C@H](CCC(N)=O)NC(=O)[C@@H](NC(=O)[C@H](C)NC(=O)[C@@H]1CSSC[C@H](NC(=O)[C@@H](N)CCCCNC(=O)CC[C@H](NC(=O)CC[C@H](NC(=O)CCCCCCCCCCCCCCCCCCC(=O)O)C(=O)O)C(=O)O)C(=O)N[C@@H](CC(N)=O)C(=O)N[C@@H]([C@@H](C)O)C(=O)N[C@@H](C)C(=O)N[C@@H]([C@@H](C)O)C(=O)N1)[C@@H](C)O)C(=O)N1CCC[C@H]1C(=O)N[C@@H](CO)C(=O)N[C@@H](CO)C(=O)N[C@H](C(=O)N1CCC[C@H]1C(=O)N[C@H](C(=O)NCC(=O)N1CCC[C@H]1C(=O)N[C@@H](CCCNC(=N)N)C(=O)N[C@H](C(=O)N[C@@H](Cc1ccc(O)cc1)C(N)=O)[C@@H](C)O)C(C)C)[C@@H](C)O [Example 119] (H-K([γGlu-γGlu-C20 diacid])CNTATCATQRLANFLRHSSPNFGAIPSSTPVGPRTY-NH2; disulfide 2-7)
- Ratio hCT/hAmylin funct. [1, 5]: 26.0
- Ratio hCT/hAmylin funct. [1, 6]: 26.0
- EC50 [1]: 0.333 nM
- Ratio hCT/hAmylin funct. [1, 7]: 26.0
- EC50 [2]: 8.66 nM
- IC50 [3]: 0.88 nM
- Ratio hCT/hAmylin binding [3, 8]: 48.6
- Ratio hCT/hAmylin binding [3, 9]: 48.6
- Ratio hCT/hAmylin binding [3, 10]: 48.6
- Ratio hCT/hAmylin binding [3, 11]: 48.6
- Ratio hCT/hAmylin binding [3, 12]: 48.6
- Ratio hCT/hAmylin binding [3, 13]: 48.6
- Ratio hCT/hAmylin binding [3, 14]: 48.6
- IC50 [4]: 42.8 nM

SMILES: CC[C@H](C)[C@H](NC(=O)[C@H](C)NC(=O)CNC(=O)[C@H](Cc1ccccc1)NC(=O)[C@H](CC(N)=O)NC(=O)[C@@H]1CCCN1C(=O)[C@H](CO)NC(=O)[C@H](CO)NC(=O)[C@H](Cc1c[nH]cn1)NC(=O)[C@H](CCCNC(=N)N)NC(=O)[C@H](CC(C)C)NC(=O)[C@H](Cc1ccccc1)NC(=O)[C@H](CO)NC(=O)[C@H](C)NC(=O)[C@H](CC(C)C)NC(=O)[C@H](CCCNC(=N)N)NC(=O)[C@H](CCC(N)=O)NC(=O)[C@@H](NC(=O)[C@H](C)NC(=O)[C@@H]1CSSC[C@H](NC(=O)[C@@H](N)CCCCNC(=O)CC[C@H](NC(=O)CC[C@H](NC(=O)CCCCCCCCCCCCCCCCCCC(=O)O)C(=O)O)C(=O)O)C(=O)N[C@@H](CC(N)=O)C(=O)N[C@@H]([C@@H](C)O)C(=O)N[C@@H](C)C(=O)N[C@@H]([C@@H](C)O)C(=O)N1)[C@@H](C)O)C(=O)N1CCC[C@H]1C(=O)N[C@@H](CO)C(=O)N[C@@H](CO)C(=O)N[C@H](C(=O)N[C@@H](CC(N)=O)C(=O)N[C@H](C(=O)NCC(=O)N1CCC[C@H]1C(=O)N[C@@H](CCC(=O)O)C(=O)N[C@H](C(=O)N[C@@H](Cc1ccc(O)cc1)C(N)=O)[C@@H](C)O)C(C)C)[C@@H](C)O [Example 120] (H-K([γGlu-γGlu-C20 diacid])CNTATCATQRLASFLRHSSPNFGAIPSSTNVGPETY-NH2; disulfide 2-7 (inferred); N-terminus assumed)
- Ratio hCT/hAmylin funct. [1, 5]: 8.1
- Ratio hCT/hAmylin funct. [1, 6]: 8.1
- EC50 [1]: 0.109 nM
- Ratio hCT/hAmylin funct. [1, 7]: 8.1
- EC50 [2]: 0.887 nM
- IC50 [3]: 0.076 nM
- Ratio hCT/hAmylin binding [3, 8]: 45.3
- Ratio hCT/hAmylin binding [3, 9]: 45.3
- Ratio hCT/hAmylin binding [3, 10]: 45.3
- Ratio hCT/hAmylin binding [3, 11]: 45.3
- Ratio hCT/hAmylin binding [3, 12]: 45.3
- Ratio hCT/hAmylin binding [3, 13]: 45.3
- Ratio hCT/hAmylin binding [3, 14]: 45.3
- IC50 [4]: 3.44 nM
